Results as given in patent US20240139235A1, “IRON(III) FORMULATIONS FOR THE TREATMENT OF GASTROINTESTINAL INFLAMMATION” (PHARMANUTRA S.P.A., priority 2021, published 2024).

What was measured:
Format in all cases: in vivo
[1] = Iron status and haematological parameters of mice fed iron diets; details: C57BL/6 male mice, diet 50 mg/kg iron for two weeks
Experimental: (§1) Thirty C57BL/6 male mice at four weeks of age were subjected to an iron deficient diet (based on the AIN-93G rodent diet, ˜1 mg kg of iron). All mice were bred in the same environment (QIMR Berghofer Animal Facility) to minimise the inherent variability in the microbiome between individual mice.
(§2) After faecal collection at six weeks of age, mice were switched from an iron deficient diet to a diet containing 50 mg/kg of iron such as ferrous sulfate (iron (II) sulfate) or Sucrosomial® iron (ten mice per group).
Faecal samples were then collected from each mouse at eight weeks of age (i.e. two weeks with diets containing iron), the mice sacrificed and the tissues collected for analysis. Liver and serum samples were collected from each animal after euthanasia and stored at −80° C. Haematological parameters were evaluated immediately after euthanasia using a “Coulter Ac-T diff Hematology Analyzer” (Beckman Coulter, Gladesville, NSW, Australia). […] For the analysis of iron and haematological parameters, the statistical differences between the groups were calculated using the unidirectional ANOVA followed by the Tukey post-hoc test for the groups with equal variance or by the Games-Howell post-hoc test for those with unequal variance. Significant differences in variance were identified using the Levene test. DNA was extracted from the faecal samples and the microbial profile (QIMR Berghofer Medical Research Institute) was determined.
• ID: control group, maintained on iron deficient diet (about 1 mg/kg iron). • FS: group fed with diet containing 50 mg/kg of iron in the form of ferrous sulfate (FS abbreviation for ferrous sulfate)—Fe(II). • SI: group fed with diet containing 50 mg/kg of iron in the form of Sucrosomial® iron (SI abbreviation for sucrosomial iron)—Fe(III).
After being sacrificed at the age of eight weeks, iron levels in the liver and in the serum, as well as the haematological parameters of mice of the three groups under analysis (ID, FS and SI) were examined.

[2] = tested on: Lachnospiraceae spp, Rikenellaceae RC9, Faecalibaculum, Colidextribacter, Oscillibacter, Parasutterella, Lactobacillus; assay: Faecal microbiome changes at Amplicon Single Variant (ASV)/genus level; details: faecal samples, mice, two weeks on diet 50 mg/kg iron vs baseline (FIG. 6G)
Experimental: as §1
(§3) At six weeks of age (i.e. two weeks with an iron deficient diet), faeces were collected for microbiome analysis. This was the control sample for each mouse and it represents the basic microbiome of that particular animal when the lumen is iron deficient. […]
(§4) Faecal samples were then collected from each mouse at eight weeks of age (i.e. two weeks with diets containing iron), the mice sacrificed and the tissues collected for analysis. […] Haematological parameters were evaluated immediately after euthanasia using a “Coulter Ac-T diff Hematology Analyzer” (Beckman Coulter, Gladesville, NSW, Australia). Serum iron parameters, analysed using the Iron/TIBC Reagent Kit (Pointe Scientific, Canton, MI), and iron levels in tissues were determined as described above [Frazer, D. M., et al. Cell Mol Gastroenterol Hepatol 3, 410-421 (2017)]. […] DNA was extracted from the faecal samples and the microbial profile (QIMR Berghofer Medical Research Institute) was determined. […]

gut microbiome of mice = assay: Faecal microbiome diversity (beta and alpha diversity) in mice; details: faecal samples, two weeks on diet 50 mg/kg iron
Experimental: as §1, §3
Faecal samples were then collected from each mouse at eight weeks of age (i.e. two weeks with diets containing iron), the mice sacrificed and the tissues collected for analysis. […] Haematological parameters were evaluated immediately after euthanasia using a “Coulter Ac-T diff Hematology Analyzer” (Beckman Coulter, Gladesville, NSW, Australia). Serum iron parameters, analysed using the Iron/TIBC Reagent Kit (Pointe Scientific, Canton, MI), and iron levels in tissues were determined as described above [Frazer, D. M., et al. Cell Mol Gastroenterol Hepatol 3, 410-421 (2017)]. […] DNA was extracted from the faecal samples and the microbial profile (QIMR Berghofer Medical Research Institute) was determined.

[3] = Body weight of mice on iron diets; details: C57BL/6 male mice, diet 50 mg/kg iron for two weeks; comparison of ID, FS and SI groups (FIG. 1A)
Experimental: as §1, §2
The remaining ten mice were a control group that remained on the deficient diet.
Faecal samples were then collected from each mouse at eight weeks of age (i.e. two weeks with diets containing iron), the mice sacrificed and the tissues collected for analysis. Liver and serum samples were collected from each animal after euthanasia and stored at −80° C. Haematological parameters were evaluated immediately after euthanasia using a “Coulter Ac-T diff Hematology Analyzer” (Beckman Coulter, Gladesville, NSW, Australia). Serum iron parameters, analysed using the Iron/TIBC Reagent Kit (Pointe Scientific, Canton, MI), and iron levels in tissues were determined as described above [Frazer, D. M., et al. Cell Mol Gastroenterol Hepatol 3, 410-421 (2017)]. […] DNA was extracted from the faecal samples and the microbial profile (QIMR Berghofer Medical Research Institute) was determined. […]

Bacteroidota = assay: Faecal microbiome changes at phylum level: Bacteroidota; details: faecal samples, mice, two weeks on diet 50 mg/kg iron vs baseline (FIG. 5)
Experimental: as §1, §3, §4

For ferrous sulfate, the “iron concentration in the liver” value ([1]; Sucrosomial iron vs ferrous sulfate (FIG. 1B)) was “no significant differences”, the serum iron levels ([1]; Sucrosomial iron vs ferrous sulfate (FIG. 1C)) was “no significant differences” and the transferrin saturation ([1]; Sucrosomial iron vs ferrous sulfate (FIG. 1D)) was “no significant differences”. The “red blood cell count” value ([1]; Sucrosomial iron vs ferrous sulfate (FIG. 2A)) was “no significant differences”, the haemoglobin ([1]; Sucrosomial iron vs ferrous sulfate (FIG. 2B)) was “no significant differences” and the haematocrit ([1]; Sucrosomial iron vs ferrous sulfate (FIG. 2C)) was “no significant differences”. The mean corpuscular volume ([1]; Sucrosomial iron vs ferrous sulfate (FIG. 2D)) was “no significant differences”, the “Lactobacillus at the genus level, change vs baseline” value [2] was “no similar decrease” and the “Shannon index (alpha diversity) per group” value (gut microbiome of mice; unpaired comparison of groups (FIG. 4A)) was “lower”. For the same substance, the “beta diversity (overall microbial composition, PCoA)” value (gut microbiome of mice; vs iron deficient diet (FIG. 3)) was “able to be distinguished from samples taken from mice on iron-deficient diets”, the body weight [3] was “no significant differences” and the “abundance of phylum Bacteroidota, change vs baseline” value (Bacteroidota) was “significantly reduced”.
